US9321764B2, “Dihydro-pyrrolopyridinone inhibitors” (AbbVie Inc., priority 2013, dated 2016)
Marks after values point to notes of the source that are not given here.

How the values were obtained:
[1] = system: LPS induced IL-6 production; experiment: LPS (lipopolysaccharide) induced IL-6 production mouse assay; assay type: in vivo; conditions: read-out: Inhibition of LPS induced IL-6 production, % inhibition at 3 mg/kg, 3 mg/kg oral, one hour before LPS 2.5 mg/kg i.p., serum IL-6 2 hours after LPS, SCID female mice, all p < 0.05
Method: Compounds of the Examples listed in Table 2 were assayed for their ability to inhibit LPS (lipopolysaccharide) induced IL-6 (Interleukin-6) production in mice. Fox Chase SCID® female mice (Charles Rivers Labs, 5 per group) received an intraperitoneal challenge of lipopolysaccharide (2.5 mg/kg, L2630 E. coli 0111:B4) one hour after oral administration of compounds. Mice were euthanized 2 hours after lipopolysaccharide injection, blood was removed by cardiac puncture, and then the serum harvested from the blood samples was frozen at −80° C. On the day of the assay the serum samples were brought to room temperature and then diluted 1:20 in phosphate-buffered saline containing 2% bovine serum albumin. Interleukin-6 measurements were performed using a cytokine assay from Meso Scale Discovery (Gaithersburg, Md.) for mouse serum analysis according to the manufacturer's protocol and read on a SECTOR Imager 6000 (Meso Scale Discovery, Gaithersburg, Md.) instrument. Statistical analysis was performed using Prism software (version 5.0) incorporating Dunnett's one way ANOVA. The IL-6 mean and standard deviation of the group of vehicle treated animals were compared with the IL-6 mean and standard deviation of the group treated with drug. A p value <0.05 means that there is less than a 5% probability that the mean values in the two groups are equal.

[2] = system: breast cancer cell line MX-1; experiment: MX-1 cell line proliferation assay; assay type: cell-based; conditions: Homo sapiens, MX1, 72 h, MX-1 cells, 3-day proliferation assay, Cell Titer Glo; read-out: Cellular proliferation EC50
In short: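 Final compound concentrations spanned 0.0001 to 3 μM, added to 5000 cells/well plated the previous night in RPMI 1640 plus 10% FBS at 37 °C.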

BRD4 (BDII_E352-M457) = target: T1, BRD4 (BDII_E352-M457) (Homo sapiens, UniProt O60885); experiment: TR-FRET bromodomain binding assay, second bromodomain of BRD4; conditions: His-tagged BD2, 30 nM Alexa647 probe; TR-FRET protocol A-E given per row
T1 construct: proliferation; Protocol; made in house
In short: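 His-tagged BRD4 BD2 ([…]) competed against an Alexa647-labelled BET-inhibitor probe in TR-FRET. Buffer was 20 mM sodium phosphate pH 6.0, 50 mM NaCl, 1 mM EDTA, 0.01% Triton X-100, 1 mM DTT, with method D DMSO series of 2.5 mM–800 nM (stock range). IC50 from 4-parameter fit, Ki from probe Kd and concentration.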

BRD4 (BDI_K57-E168) = target: T2, BRD4 (BDI_K57-E168) (Homo sapiens, UniProt O60885); experiment: TR-FRET bromodomain binding assay, first bromodomain of BRD4; conditions: His-tagged BD1, 100 nM Alexa647 probe; TR-FRET protocol A-E given per row
T2 construct: BD1: amino acids K57-E168; made in house
In short: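 Ki values come from IC50s (4-parameter logistic) corrected for probe Kd and concentration, normalised to no-compound and 1 μM unlabelled probe controls. Probe displacement by TR-FRET used 8 nM BD1 (K57-E168), 100 nM Alexa647 probe, 1 nM Eu-anti-His, 20 mM phosphate pH 6.0, 2% DMSO, 1 h, room temperature.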

OPM-2 xenograft tumors = experiment: Xenograft tumor growth inhibition assay (OPM-2); assay type: in vivo, mice; conditions: QDx21; for % TGI: OPM-2 xenograft, SCID-beige mice; for % removed from study: removed due to morbidity or weight loss in excess of 20%
Method: The effect of compounds of the examples to inhibit the growth of OPM-2 xenograft tumors implanted in mice was evaluated. A suspension of cancer cells (5×10^6 per 0.1 mL) prepared in RPMI culture medium (Invitrogen, Carlsbad, Calif.) was diluted 1:1 with a solution of Matrigel™ (BD Biosciences, Franklin Lakes, N.J.) and inoculated subcutaneously into the right hind flank of female SCID-beige (Charles River Labs) mice. Randomization into treatment and vehicle control groups (10/group) occurred when the mean tumor volume reached approximately 250 mm^3 Compounds were formulated in 10% EtOH, 30% PEG 400, 60% Phosol 53 MCT. Administration of compound or vehicle was initiated on the day following randomization and continued for 21 days.

EC50 [2] | Ki (BRD4 (BDII_E352-M457)) | Ki (BRD4 (BDI_K57-E168)) | SMILES | inhibition in vivo at 3 mg/kg [1] | % TGI (OPM-2 xenograft tumors; 10 mg/kg PO) | % removed from study (OPM-2 xenograft tumors; 10 mg/kg PO) | % TGI (OPM-2 xenograft tumors; 30 mg/kg PO) | % removed from study (OPM-2 xenograft tumors; 30 mg/kg PO) | % TGI (OPM-2 xenograft tumors; 1 mg/kg PO) | % removed from study (OPM-2 xenograft tumors; 1 mg/kg PO) | % TGI (OPM-2 xenograft tumors; 3 mg/kg PO) | % removed from study (OPM-2 xenograft tumors; 3 mg/kg PO)
0.037 µM | 0.031 µM | 0.0089 µM | Cn1cc(-c2cc(NS(C)(=O)=O)c(F)cc2Oc2ccc(F)cc2F)c2cc[nH]c(=O)c21 [Example 11, N-[4-(2,4-difluorophenoxy)-2-fluoro-5-(1-methyl-7-oxo-6,7-dihydro-1H-pyrrolo[2,3-c]pyridin-3-yl)phenyl]methanesulfonamide] | 66% |  |  |  |  |  |  |  | 
0.059 µM | 0.027 µM | 0.0021 µM | Cn1cc(-c2cc(NS(C)(=O)=O)ccc2Oc2ccc(C#N)cc2)c2cc[nH]c(=O)c21 [Example 16, N-[4-(4-cyanophenoxy)-3-(1-methyl-7-oxo-6,7-dihydro-1H-pyrrolo[2,3-c]pyridin-3-yl)phenyl]methanesulfonamide] | 69% |  |  |  |  |  |  |  | 
0.107 µM | 0.038 µM | 0.034 µM | Cn1cc(-c2cc(S(C)(=O)=O)ccc2Oc2ccc(F)cc2F)c2cc[nH]c(=O)c21 [Example 17, 3-[2-(2,4-difluorophenoxy)-5-(methylsulfonyl)phenyl]-1-methyl-1,6-dihydro-7H-pyrrolo[2,3-c]pyridin-7-one] | 49% | 60*** % | 10% | 64*** % | 10% |  |  |  | 
0.08 µM | 0.06 µM | 0.014 µM | Cn1cc(-c2cc(S(C)(=O)=O)ccc2OC2CCC(F)(F)CC2)c2cc[nH]c(=O)c21 [Example 25, 3-{2-[(4,4-difluorocyclohexyl)oxy]-5-(methylsulfonyl)phenyl}-1-methyl-1,6-dihydro-7H-pyrrolo[2,3-c]pyridin-7-one] | 62% |  |  |  |  |  |  |  | 
0.127 µM | 0.011 µM | 0.0061 µM | Cn1cc(-c2cc(S(C)(=O)=O)ccc2OCCC2CC2)c2cc[nH]c(=O)c21 [Example 32, 3-[2-(2-cyclopropylethoxy)-5-(methylsulfonyl)phenyl]-1-methyl-1,6-dihydro-7H-pyrrolo[2,3-c]pyridin-7-one] | 33% |  |  |  |  |  |  |  | 
 | 0.0071 µM | 0.0046 µM | Cn1cc(-c2cc(CS(C)(=O)=O)ccc2Oc2ccc(F)cc2F)c2cc[nH]c(=O)c21 [Example 52, 3-{2-(2,4-difluorophenoxy)-5-[(methylsulfonyl)methyl]phenyl}-1-methyl-1,6-dihydro-7H-pyrrolo[2,3-c]pyridin-7-one] | 77% |  |  |  |  | 13% | 0% | 16% | 10%
0.039 µM | 0.0066 µM | 0.0032 µM | CCS(=O)(=O)Cc1ccc(Oc2ccc(F)cc2F)c(-c2cn(C)c3c(=O)[nH]ccc23)c1 [Example 53, 3-{2-(2,4-difluorophenoxy)-5-[(ethylsulfonyl)methyl]phenyl}-1-methyl-1,6-dihydro-7H-pyrrolo[2,3-c]pyridin-7-one] | 74% |  |  |  |  |  |  |  | 
0.037 µM | 0.0062 µM | 0.016 µM | Cn1cc(-c2cc(CS(C)(=O)=O)cnc2Oc2ccc(F)cc2F)c2cc[nH]c(=O)c21 [Example 60, 3-{2-(2,4-difluorophenoxy)-5-[(methylsulfonyl)methyl]pyridin-3-yl}-1-methyl-1,6-dihydro-7H-pyrrolo[2,3-c]pyridin-7-one] | 62% |  |  |  |  |  |  |  | 
